{
  "source": "patent US4957940A",
  "about": "“Bicyclo heptane and bicyclo octane substituted inhibitors of cholesterol synthesis” (Warner-Lambert Company, priority 1989, dated 1990)",
  "system": "biosynthesis of cholesterol",
  "assay": "CSI screen: inhibition of cholesterol biosynthesis (14C-acetate incorporation into nonsaponifiable lipid by rat liver homogenate)",
  "type": "biochemical",
  "conditions": "50% inhibition of sterol synthesis over a one-hour period",
  "protocol": "The ability of compounds of the present invention to inhibit the biosynthesis of cholesterol was measured by a method (designated CSI screen) which utilizes the procedure described by R. E. Dugan, et al, Archiv. Biochem. Biophys., (1972), 152, 21-27. In this method, the level of HMG-CoA enzyme activity in standard laboratory rats is increased by feeding the rats a chow diet containing 5% cholestryramine for four days, after which the rats are sacrificed.\nThe rat livers are homogenized, and the incorporation of […] into nonsaponifiable lipid by the rat liver homogenate is measured. The micromolar concentration of compound required for 50% inhibition of sterol synthesis over a one-hour period is measured, and expressed as an IC50 value.",
  "data": [
    {"smiles": "C=C1CC2(C)CC1C(c1ccccc1)=C2/C=C/[C@@H]1C[C@@H](O)CC(=O)O1", "note": "(relative stereo)", "values": [
      {"measurement": "IC50", "value": 440, "unit": "nM"}
    ]}
  ]
}
